The test deals with kappa opioid receptor (KOR) (Homo sapiens, UniProt P41145). Briefly: GTPγS assay, antagonism of U69, […], concentration-response. In kind it is biochemical.
Sequence of kappa opioid receptor (KOR) (P41145 whole entry): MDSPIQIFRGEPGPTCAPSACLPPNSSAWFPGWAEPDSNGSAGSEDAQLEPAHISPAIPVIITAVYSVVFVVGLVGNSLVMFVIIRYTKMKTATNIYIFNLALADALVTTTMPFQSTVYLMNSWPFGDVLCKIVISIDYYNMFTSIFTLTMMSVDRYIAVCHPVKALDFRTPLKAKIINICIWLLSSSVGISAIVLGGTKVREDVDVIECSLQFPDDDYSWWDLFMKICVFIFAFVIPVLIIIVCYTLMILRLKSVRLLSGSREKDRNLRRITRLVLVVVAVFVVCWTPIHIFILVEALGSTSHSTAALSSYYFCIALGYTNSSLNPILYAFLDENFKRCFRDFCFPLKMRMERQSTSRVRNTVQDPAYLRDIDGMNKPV

In general, IC50 refers to the concentration at which inhibition is half-maximal. Low values mean inhibition by little substance, high ones a need for much substance. In turn, `COc1ccc(N2CCN(CCCNC(=O)CN3C(=O)C4CCCCN4c4cc(C)cnc43)CC2)cc1` (racemic) [compound 28, N-(3-(4-(4-Methoxyphenyl)piperazin-1-yl)propyl)-2-(2-methyl-6-oxo-6,6a,7,8,9,10-hexahydro-5H-dipyrido[1,2-a:2′,3′-e]pyrazin-5-yl)acetamide] came in with an IC50 of 906 nM.
`COc1ccc(N2CCN(CCCNC(=O)CN3C(=O)[C@@H]4CCCN4c4cc(C)cnc43)CC2)cc1` [compound 27, (S)-N-(3-(4-(4-Methoxyphenyl)piperazin-1-yl)propyl)-2-(2-methyl-6-oxo-6a,7,8,9-tetrahydropyrido[2,3-e]pyrrolo[1,2-a]pyrazin-5(6H)-yl)acetamide] had an IC50 of 2620 nM.
With `COc1ccc(N2CCN(CCCNC(=O)CN3C(=O)[C@@H]4CCCN4c4c(C)ccnc43)CC2)cc1` [compound 26, (S)-N-(3-(4-(4-Methoxyphenyl)piperazin-1-yl)propyl)-2-(1-methyl-6-oxo-6a,7,8,9-tetrahydropyrido[2,3-e]pyrrolo[1,2-a]pyrazin-5(6H)-yl)acetamide], half-maximal inhibition (IC50) was put at 2820 nM.
The compound `COc1ccc(N2CCN(CCCNC(=O)CN3C(=O)[C@H](CC(C)C)Nc4cc(C)cnc43)CC2)cc1` [compound 29, (S)-2-(2-Isobutyl-7-methyl-3-oxo-2,3-dihydropyrido[2,3-b]-pyrazin-4(1H)-yl)-N-(3-(4-(4-methoxyphenyl)piperazin-1-yl)propyl)-acetamide] came in with an IC50 of 433 nM. This IC50 is about 6.5-fold lower than that of the compound before.

(Values after publication PMC5278949 (The Journal of organic chemistry, 2016).)
